In the supplement of paper PMC10307832:

Assays:
Experiment in all cases: relative viability (nuclei count vs DMSO), 5 days (fraction); higher = more cells survive
HCC-44 = system: HCC-44
In short: (§1)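 Relative viability equals treated-well nuclei counts divided by vehicle-well nuclei counts. Counts came from 4× images of lung cancer cell lines grown in 1536-well plates for 5 days after pin-tool dosing on the day after seeding. Dosing used one drug alone or a fixed anchor-drug dose plus five library-drug doses (not always all listed) in √10 steps, and values are medians of duplicate plates.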

NCI-H1437 = system: NCI-H1437
In short: as §1

A549 = system: A549
In short: as §1

NCI-H1703 = system: NCI-H1703
In short: as §1

NCI-H1299 = system: NCI-H1299
In short: as §1

EBC-1 = system: EBC-1
In short: as §1

NCI-H522 = system: NCI-H522
In short: as §1

NCI-H1648 = system: NCI-H1648
In short: as §1

HCC-366 = system: HCC-366
In short: as §1

Calu-6 = system: Calu-6
In short: as §1

IA-LM = system: IA-LM
In short: as §1

NCI-H1623 = system: NCI-H1623
In short: as §1

## O=C(O)c1ccc(-c2c[nH]c3ncc(-c4ccccc4)cc23)cc1C1CCCC1 + O=C(c1cc(Cc2n[nH]c(=O)c3ccccc23)ccc1F)N1CCN(C(=O)C2CC2)CC1 [Olaparib] (partner 8 µM)
HCC-44; first compound 0.04 µM
  relative viability: 0.998
HCC-44; first compound 0.1265 µM
  relative viability: 0.975
HCC-44; first compound 0.4 µM
  relative viability: 0.975
HCC-44; first compound 1.265 µM
  relative viability: 0.95
NCI-H1437; first compound 0.04 µM
  relative viability: 0.666
NCI-H1437; first compound 0.1265 µM
  relative viability: 0.633
NCI-H1437; first compound 0.4 µM
  relative viability: 0.556
NCI-H1437; first compound 1.265 µM
  relative viability: 0.279
A549; first compound 0.04 µM
  relative viability: 0.224
A549; first compound 0.1265 µM
  relative viability: 0.674
A549; first compound 0.4 µM
  relative viability: 0.345
A549; first compound 1.265 µM
  relative viability: 0.307
NCI-H1703; first compound 0.04 µM
  relative viability: 0.57
NCI-H1703; first compound 0.1265 µM
  relative viability: 0.468
NCI-H1703; first compound 0.4 µM
  relative viability: 0.382
NCI-H1703; first compound 1.265 µM
  relative viability: 0.49
NCI-H1299; first compound 0.04 µM
  relative viability: 0.964
NCI-H1299; first compound 0.1265 µM
  relative viability: 1
NCI-H1299; first compound 0.4 µM
  relative viability: 0.893
NCI-H1299; first compound 1.265 µM
  relative viability: 0.821
EBC-1; first compound 0.04 µM
  relative viability: 0.692
EBC-1; first compound 0.1265 µM
  relative viability: 0.626
EBC-1; first compound 0.4 µM
  relative viability: 0.618
EBC-1; first compound 1.265 µM
  relative viability: 0.406
NCI-H522; first compound 0.04 µM
  relative viability: 0.816
NCI-H522; first compound 0.1265 µM
  relative viability: 0.673
NCI-H522; first compound 0.4 µM
  relative viability: 0.596
NCI-H522; first compound 1.265 µM
  relative viability: 0.755
NCI-H1648; first compound 0.04 µM
  relative viability: 0.676
NCI-H1648; first compound 0.1265 µM
  relative viability: 1.15
NCI-H1648; first compound 0.4 µM
  relative viability: 0.763
HCC-366; first compound 0.04 µM
  relative viability: 0.362
HCC-366; first compound 0.1265 µM
  relative viability: 0.419
HCC-366; first compound 0.4 µM
  relative viability: 0.422
HCC-366; first compound 1.265 µM
  relative viability: 0.376
Calu-6; first compound 0.04 µM
  relative viability: 0.521
Calu-6; first compound 0.1265 µM
  relative viability: 0.56
Calu-6; first compound 0.4 µM
  relative viability: 0.488
Calu-6; first compound 1.265 µM
  relative viability: 0.395
IA-LM; first compound 0.04 µM
  relative viability: 0.836
IA-LM; first compound 0.1265 µM
  relative viability: 0.758
IA-LM; first compound 0.4 µM
  relative viability: 0.846
IA-LM; first compound 1.265 µM
  relative viability: 0.719

## NC(=O)Nc1cc(-c2cccc(F)c2)sc1C(=O)N[C@H]1CCCNC1 [AZD7762] + CCNC(=O)c1noc(-c2cc(C(C)C)c(O)cc2O)c1-c1ccc(CN2CCOCC2)cc1 [Luminespib] (partner 0.01 µM)
HCC-44; first compound 0.01 µM
  relative viability: 1.14
HCC-44; first compound 0.03162 µM
  relative viability: 0.997
HCC-44; first compound 0.1 µM
  relative viability: 0.918
HCC-44; first compound 0.3162 µM
  relative viability: 0.96
HCC-44; first compound 1 µM
  relative viability: 0.423
NCI-H1437; first compound 0.01 µM
  relative viability: 1.17
NCI-H1437; first compound 0.03162 µM
  relative viability: 1.18
NCI-H1437; first compound 0.1 µM
  relative viability: 1.2
NCI-H1437; first compound 0.3162 µM
  relative viability: 1.13
NCI-H1437; first compound 1 µM
  relative viability: 0.79
NCI-H522; first compound 0.01 µM
  relative viability: 1.14
NCI-H522; first compound 0.03162 µM
  relative viability: 1.23
NCI-H522; first compound 0.1 µM
  relative viability: 1.14
NCI-H522; first compound 0.3162 µM
  relative viability: 1.35
NCI-H522; first compound 1 µM
  relative viability: 1
NCI-H1623; first compound 0.01 µM
  relative viability: 0.421
NCI-H1623; first compound 0.03162 µM
  relative viability: 0.591
NCI-H1623; first compound 0.1 µM
  relative viability: 0.602
NCI-H1623; first compound 0.3162 µM
  relative viability: 0.604
NCI-H1623; first compound 1 µM
  relative viability: 0.418

## NC(=O)Nc1cc(-c2cccc(F)c2)sc1C(=O)N[C@H]1CCCNC1 [AZD7762] + Cc1nc(Nc2ncc(C(=O)Nc3c(C)cccc3Cl)s2)cc(N2CCN(CCO)CC2)n1 [Dasatinib] (partner 0.075 µM)
NCI-H1437; first compound 0.01 µM
  relative viability: 0.346
NCI-H1437; first compound 0.03162 µM
  relative viability: 0.586
NCI-H1437; first compound 0.1 µM
  relative viability: 0.427
NCI-H1437; first compound 0.3162 µM
  relative viability: 0.286
NCI-H1437; first compound 1 µM
  relative viability: 0.307
NCI-H522; first compound 0.01 µM
  relative viability: 0.923
NCI-H522; first compound 0.03162 µM
  relative viability: 0.919
NCI-H522; first compound 0.1 µM
  relative viability: 0.76
NCI-H522; first compound 0.3162 µM
  relative viability: 0.933
NCI-H522; first compound 1 µM
  relative viability: 0.946
NCI-H1623; first compound 0.01 µM
  relative viability: 0.471
NCI-H1623; first compound 0.03162 µM
  relative viability: 0.558
NCI-H1623; first compound 0.1 µM
  relative viability: 0.615
NCI-H1623; first compound 0.3162 µM
  relative viability: 0.482
NCI-H1623; first compound 1 µM
  relative viability: 0.482
HCC-366; first compound 0.01 µM
  relative viability: 0.707
HCC-366; first compound 0.03162 µM
  relative viability: 0.625
HCC-366; first compound 0.1 µM
  relative viability: 0.659
HCC-366; first compound 0.3162 µM
  relative viability: 0.421
HCC-366; first compound 1 µM
  relative viability: 0.177
